The values that follow come from ChEMBL document CHEMBL4483862, “Open-source discovery of chemical leads for next-generation chemoprotective antimalarials” (2018).

The test system of this experiment is Plasmodium berghei. The experiment is described as follows: Luciferase/luciferin-expressing antifolate-resistant parasites were used to infect a culture of HepG2 cells that were pre-incubated with compounds. Infected hepatocytes emit light due to the luciferase reaction. Assay results are presented as the percent inhibition of light emission compared to control. […]. It is filed as functional. The note with it: sporozoite; for IC90: read-out: LUCIFERASE INFECTION ASSAY - IC90.

Setting [1] is: read-out: LUCIFERASE INFECTION ASSAY - IC50.

pIC50: −log10 of the molar value.

The pIC50 is the IC50 on a negative log10 scale, so that one unit is a factor of ten. A word on the IC90: it is the concentration at which the effect reaches the 90% level. Regarding `O=C1C=CC(=O)N1c1ccc(C2CCCCC2)cc1`, the IC90 came out at 11.3 µM. In addition, the pIC50 (HEPG2TOX_HILL_SLOPE 18, HEPG2TOX_R_SQUARED 0.917, PBLUC_HILL_SLOPE 2, PBLUC_R_SQUARED 0.694, read-out: LUCIFERASE INFECTION ASSAY - IC50) was 5.42.

For the compound `Oc1c(Cl)cc(Cl)cc1-c1ccn[nH]1`, the IC90 was > 14.4 µM. Moreover, the pIC50 under setting [1] was < 4.84.

Turning to `O=C(NNC(=O)c1csnn1)c1ccc(Cl)cc1`, the IC90 is 0.897 µM. Also, the pIC50 (PBLUC_HILL_SLOPE 1.87, PBLUC_R_SQUARED 0.856, read-out: LUCIFERASE INFECTION ASSAY - IC50) is 6.56.

In the case of `C=CCn1c(SCC(=O)Nc2sc(C)c(C)c2C(=O)OCC)nc2scc(-c3ccc(OC)cc3)c2c1=O`, the IC90 was > 10 µM. Also, under “FFLUC_HILL_SLOPE 9.8, FFLUC_R_SQUARED 0.347, HEPG2TOX_HILL_SLOPE 0.0825, HEPG2TOX_R_SQUARED 0.0539, PBLUC_HILL_SLOPE 3.18, PBLUC_R_SQUARED 0.293, read-out: LUCIFERASE INFECTION ASSAY - IC50”, the pIC50 is 5.25.

As for `CCOC(=O)c1c(C)[nH]c(N=Nc2ccc3c(c2)OCO3)c1C`, the 90% effect concentration (IC90) is > 10 µM. Also, under setting [1], the pIC50 is 5.03.

As for `CSc1c(C#N)c(-c2ccc(Cl)cc2)nn1C(=O)C(C)C`, the IC90 is > 10.3 µM. The pIC50 (PBLUC_HILL_SLOPE 1.94, PBLUC_R_SQUARED 0.662, read-out: LUCIFERASE INFECTION ASSAY - IC50) is < 4.99.

As to `Cn1ccnc1Sc1c[nH]c(=S)nc1-c1ccc(Cl)cc1`, the IC90 worked out at 9.04 µM. Besides, the pIC50 (FFLUC_HILL_SLOPE 122, FFLUC_R_SQUARED 0.312, PBLUC_HILL_SLOPE 4.61, PBLUC_R_SQUARED 0.38, read-out: LUCIFERASE INFECTION ASSAY - IC50) was 5.25.

Take `CON(C)S(=O)(=O)c1ccc(NC(=O)COc2cccc(C(C)(C)C)c2)cc1`: the IC90 is > 10 µM. Moreover, the pIC50 under setting [1] was < 5.00.

Turning to `N#Cc1sc(SCc2ccccc2)c2c1CC(c1ccccc1)CC2=O` (stereo not given), the IC90 was > 8.79 µM. Besides, the pIC50 (HEPG2TOX_HILL_SLOPE 1.94, HEPG2TOX_R_SQUARED 0.866, PBLUC_HILL_SLOPE 1.6, PBLUC_R_SQUARED 0.401, read-out: LUCIFERASE INFECTION ASSAY - IC50) is 5.13.

In the case of `Cc1ccc(-n2c(C)cc(C(=O)CSc3nc(N)cc(N)n3)c2C)cc1C`, the IC90 worked out at 4.39 µM. Moreover, the pIC50 (HEPG2TOX_HILL_SLOPE 0.381, HEPG2TOX_R_SQUARED 0.896, PBLUC_HILL_SLOPE 2.47, PBLUC_R_SQUARED 0.602, read-out: LUCIFERASE INFECTION ASSAY - IC50) was 5.74.

In the case of `CC(c1ccccc1)N(C)C(=O)c1nn(-c2ccccc2)c2c1CCC2` (stereo not given), the IC90 was > 10 µM. Under setting [1], the pIC50 was < 5.00.

Take `COc1ccc2c(C(=O)N/N=C/c3cc(Br)c4ccccc4c3O)cccc2c1`: the IC90 was 3.64 µM. In addition, where the note is “FFLUC_HILL_SLOPE 0.529, FFLUC_R_SQUARED 0.712, HEPG2TOX_HILL_SLOPE 1.8, HEPG2TOX_R_SQUARED 0.756, PBLUC_HILL_SLOPE 12.3, PBLUC_R_SQUARED 0.402, read-out: LUCIFERASE INFECTION ASSAY - IC50”, the pIC50 was 5.52.

Consider `Clc1ccc(-c2cn3c(-c4ccccc4)cnc3cn2)c(Cl)c1`, for which the IC90 came out at 3.69 µM. For the same compound, where the note is “HEPG2TOX_HILL_SLOPE 1.88, HEPG2TOX_R_SQUARED 0.996, PBLUC_HILL_SLOPE 1.95, PBLUC_R_SQUARED 0.542, read-out: LUCIFERASE INFECTION ASSAY - IC50”, the negative logarithm of the IC50 (pIC50) was 5.92.

With `CCN(CC(=O)Nc1cccc(OC)c1)C(=O)C1Cc2ccccc2O1` (stereo not given), the IC90 was > 10 µM. In addition, under setting [1], the pIC50 was < 5.00.

For `O=C(NC(=O)c1cnn2c(C(F)(F)F)cc(C(F)(F)F)nc12)Nc1ccc(Cl)cc1`, the IC90 is > 7.31 µM. The pIC50 under setting [1] was < 5.14.

Take `CC(NC(=O)Cc1ccc(-c2ccccc2)cc1)c1cccs1` (stereo not given): the IC90 stood at 9.4 µM. Besides, where the note is “HEPG2TOX_HILL_SLOPE 1.66, HEPG2TOX_R_SQUARED 0.927, PBLUC_HILL_SLOPE 1.26, PBLUC_R_SQUARED 0.823, read-out: LUCIFERASE INFECTION ASSAY - IC50”, the pIC50 was 5.79.

With `Cc1c(C(=O)Nc2nonc2-c2ccc(F)cc2)oc2ccc(F)cc12`, the IC90 came to 8.3 µM. The pIC50 (HEPG2TOX_HILL_SLOPE 16.1, HEPG2TOX_R_SQUARED 0.611, PBLUC_HILL_SLOPE 12, PBLUC_R_SQUARED 0.0677, read-out: LUCIFERASE INFECTION ASSAY - IC50) is 5.16.

As to `CN(C)C(=O)Cc1nc(CSc2nc3ncccn3n2)cs1`, the 90% effect concentration (IC90) is > 10 µM. Also, under setting [1], the pIC50 was < 5.00.

Regarding `O=C(NC1CC1)c1ccc(-c2cnc3c(NCc4ccco4)nccn23)cc1`, the IC90 came to 3.44 µM. The pIC50 (HEPG2TOX_HILL_SLOPE 10.4, HEPG2TOX_R_SQUARED 0.433, PBLUC_HILL_SLOPE 17.4, PBLUC_R_SQUARED 0.253, read-out: LUCIFERASE INFECTION ASSAY - IC50) was 5.52.

Take `CN(Cc1ccc(Cl)cc1Cl)C(=O)c1ccc(NC(=O)C2CC2)cc1`: the IC90 was > 10 µM. In addition, the pIC50 (FFLUC_HILL_SLOPE 0.429, FFLUC_R_SQUARED 0.32, PBLUC_HILL_SLOPE 3.47, PBLUC_R_SQUARED 0.753, read-out: LUCIFERASE INFECTION ASSAY - IC50) was 5.16.

For `O=C(NC1CCS(=O)(=O)c2ccccc21)C1CCN(c2ncc(C(F)(F)F)cc2Cl)CC1` (stereo not given), the IC90 is > 10 µM. The pIC50 under setting [1] is < 5.00.

As to `COc1ccc(S(=O)(=O)N2CCN(CC(=O)N3CCCCCC3)CC2)cc1`, the concentration for an effect of 90% (IC90) is > 10 µM. Moreover, the pIC50 under setting [1] is < 5.00.

Regarding `CCCNC(=O)COc1ccc(Nc2ccccc2)cc1`, the concentration for an effect of 90% (IC90) is > 10 µM. Besides, the pIC50 under setting [1] was < 5.00.

In the case of `CN(C)c1ccc(-c2nnc3ccccn23)cc1`, the IC90 was > 13.8 µM. Also, under setting [1], the pIC50 is 5.18.

As for `O=C(Nc1nc2ccccn2c1C(=O)NC1CCCC1)c1ccc(F)cc1`, the IC90 was > 9.01 µM. Besides, under setting [1], the pIC50 was < 5.05.

`O=c1c2c3c(sc2nc(SCc2cc(=O)n4ccsc4n2)n1-c1ccccc1C(F)(F)F)CCCCC3`: the IC90 is > 10 µM. Besides, the pIC50 (FFLUC_HILL_SLOPE 12.2, FFLUC_R_SQUARED 0.743, read-out: LUCIFERASE INFECTION ASSAY - IC50) was < 5.00.

As for `Cc1ccc(-c2nc(NC(=O)c3ccc4c(=O)[nH]c(=O)n(C)c4n3)sc2-c2ccc(C)cc2)cc1`, the IC90 was determined as 4.58 µM. For the setting “FFLUC_HILL_SLOPE 5.14, FFLUC_R_SQUARED 0.303, PBLUC_HILL_SLOPE 8.87, PBLUC_R_SQUARED 0.194, read-out: LUCIFERASE INFECTION ASSAY - IC50”, the pIC50 was 5.45.

As to `O=C(NC1CC1)c1ccc(-c2cn3c(-c4ccc(O)cc4)cnc3cn2)cc1`, the IC90 is > 8.91 µM. Moreover, the pIC50 (HEPG2TOX_HILL_SLOPE 9.19, HEPG2TOX_R_SQUARED 0.833, PBLUC_HILL_SLOPE 2.2, PBLUC_R_SQUARED 0.157, read-out: LUCIFERASE INFECTION ASSAY - IC50) was 5.11.

Consider `c1ccc(NCc2ccc(-c3cn4c(-c5ccccc5)cnc4cn3)cc2)cc1`, for which the IC90 is > 8.77 µM. The pIC50 (FFLUC_HILL_SLOPE 2.57, FFLUC_R_SQUARED 0.0602, PBLUC_HILL_SLOPE 15.1, PBLUC_R_SQUARED 0.239, read-out: LUCIFERASE INFECTION ASSAY - IC50) is 5.11.

With `CCNC(=O)CNC(=O)c1ccc(C(C)(C)C)cc1`, the IC90 is > 10 µM. Further, the pIC50 under setting [1] is < 5.00.

On to `O=C(CSc1cccc[n+]1[O-])N1N=C2/C(=C/c3ccccc3)CCCC2C1c1ccccc1` (stereo not given), for which the IC90 was found to be 6.17 µM. The pIC50 (PBLUC_HILL_SLOPE 13.0, 1.48, PBLUC_R_SQUARED 0.151, 0.616, read-out: LUCIFERASE INFECTION ASSAY - IC50) was 5.58.

`Nn1c(SC2CCCCC2=O)nnc1C1CCCCC1` (stereo not given): the IC90 is > 10 µM. Besides, the pIC50 under setting [1] is < 5.00.

Take `Cc1cn2c(/C=C/c3nc4cc(Cl)ccc4o3)c(C)nc2s1`: the IC90 is > 10 µM. Further, the pIC50 under setting [1] is < 5.00.

In the case of `O=C(CN1CCC(Cc2ccccc2)CC1)NCc1ccc(F)cc1`, the IC90 came to 4.07 µM. Moreover, the pIC50 (PBLUC_HILL_SLOPE 12.9, PBLUC_R_SQUARED 0.271, read-out: LUCIFERASE INFECTION ASSAY - IC50) is 5.46.

For the compound `Cc1cc(C(=O)COC(=O)C2=COCCO2)c(C)n1Cc1ccco1`, the IC90 was > 10 µM. Under setting [1], the pIC50 is < 5.00.

`CC(=O)Nc1ccc(Sc2ccnc3cc(Cl)ccc23)cc1`: the IC90 was 3.98 µM. For the same compound, the pIC50 (FFLUC_HILL_SLOPE 2.92, FFLUC_R_SQUARED 0.4, PBLUC_HILL_SLOPE 11.7, PBLUC_R_SQUARED 0.574, read-out: LUCIFERASE INFECTION ASSAY - IC50) is 5.48.

Consider `CS(=O)(=O)c1sc(NC(=O)Nc2ccccc2Cl)c2ccccc12`, for which the IC90 is > 8.66 µM. In addition, under setting [1], the negative-log IC50 (pIC50) was < 5.06.

As to `Cn1ccc2cc(-c3cn4c(-c5cccc(Cl)c5)cnc4cn3)ccc21`, the IC90 came out at 2.86 µM. In addition, the pIC50 (HEPG2TOX_HILL_SLOPE 1.09, HEPG2TOX_R_SQUARED 0.945, PBLUC_HILL_SLOPE 1.73, PBLUC_R_SQUARED 0.845, read-out: LUCIFERASE INFECTION ASSAY - IC50) is 6.09.

Consider `CC(C)(C)c1cc(=O)n(-c2nc3ccc(Cl)cc3s2)[nH]1`, for which the IC90 is > 10.7 µM. The pIC50 under setting [1] is < 4.97.

As to `O=C1C=CC(=O)N1c1ccc(Cl)cc1Br`, the IC90 is 8.68 µM. Further, for the setting “FFLUC_HILL_SLOPE 1.45, FFLUC_R_SQUARED 0.668, PBLUC_HILL_SLOPE 3.96, PBLUC_R_SQUARED 0.503, read-out: LUCIFERASE INFECTION ASSAY - IC50”, the pIC50 is 5.30.
